Test results taken from ChEMBL document CHEMBL1201862, “PubChem BioAssay data set” (2004).
“And” between values parts separate entries of the source, which are not always exact repeats. Equal values may be shown once.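 Each compound was tested at five concentrations against cells in 96-well plates for 48 hours. Here, GI50 denotes the concentration required for 50% inhibition of growth.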 The source made the active and inactive calls. No stated cut-off is given here; in the data, active = GI50 up to about 1.1 µM and inactive = higher.

Legend:
Test in all cases: inhibition of tumour cell growth, NCI panel, 48 h
[1] = test system: SF-539
[2] = test system: SK-MEL-5
[3] = test system: LXFL 529
[4] = test system: OVCAR-8
[5] = test system: IGROV-1
[6] = test system: NCI-H460
[7] = test system: A498
[8] = test system: NCI-H23
[9] = test system: SK-MEL-2
[10] = test system: DLD-1
[11] = test system: CAKI-1
[12] = test system: Malme-3M
[13] = test system: A549
[14] = test system: KM12
[15] = test system: COLO 205
[16] = test system: DMS-114
[17] = test system: UACC-62
[18] = test system: UO-31
[19] = test system: SF-295
[20] = test system: SW-620
[21] = test system: RPMI-8226
[22] = test system: OVCAR-5
[23] = test system: XF498
[24] = test system: EKVX
[25] = test system: HOP-62
[26] = test system: M14
[27] = test system: NCI-H226
[28] = test system: HT-29
[29] = test system: SF-268
[30] = test system: SNB-75
[31] = test system: LOX IMVI
[32] = test system: SNB-78
[33] = test system: KM-20L2
[34] = test system: NCI-H522
[35] = test system: HCC 2998
[36] = test system: HL-60
[37] = test system: HCT-15
[38] = test system: CCRF-CEM
[39] = test system: MOLT-4
[40] = test system: DMS-273
[41] = test system: OVCAR-4
[42] = test system: M19-MEL
[43] = test system: HOP-92
[44] = test system: SK-MEL-28
[45] = test system: 786-0
[46] = test system: SN12C
[47] = test system: OVCAR-3
[48] = test system: SNB-19
[49] = test system: K562
[50] = test system: UACC-257
[51] = test system: ACHN
[52] = test system: TK-10
[53] = test system: RXF 393
[54] = test system: HCT-116
[55] = test system: SR
[56] = test system: U-251
[57] = test system: SK-OV-3
[58] = test system: T47D
[59] = test system: MDA-MB-435
[60] = test system: MCF7
[61] = test system: Hs-578T
[62] = test system: MDA-N
[63] = test system: PC-3
[64] = test system: DU-145
[65] = test system: NCI/ADR-RES
[66] = test system: BT-549
[67] = test system: MDA-MB-231

Measured: GI50

CCO/C=C1\N=C(c2ccc(Cl)c(Cl)c2)OC1=O
inactive: [1] > 100 µM | [2] > 100 µM | [3] > 100 µM | [4] > 100 µM | [5] > 100 µM | [6] > 100 µM | [7] 27 µM | [8] > 100 µM | [9] > 100 µM | [10] > 100 µM | [11] > 100 µM | [12] > 100 µM | [13] > 100 µM | [14] > 100 µM | [15] > 100 µM | [16] 28.4 µM | [17] > 100 µM | [18] 36.6 µM | [19] > 100 µM | [20] > 100 µM | [21] > 100 µM | [22] > 100 µM | [23] > 100 µM | [24] 41 µM | [25] 50 µM | [26] > 100 µM | [27] 30.5 µM | [28] > 100 µM | [29] > 100 µM | [30] 52.1 µM | [31] > 100 µM | [32] > 100 µM | [33] > 100 µM | [34] 89.5 µM | [35] > 100 µM | [36] > 100 µM | [38] > 100 µM | [39] > 100 µM | [40] > 100 µM | [41] > 100 µM | [42] > 100 µM | [43] > 100 µM | [44] > 100 µM | [45] > 100 µM | [46] > 100 µM | [47] > 100 µM | [48] > 100 µM | [49] > 100 µM | [50] > 100 µM | [51] > 100 µM | [52] > 100 µM | [53] 79.8 µM
> 100 µM: [37]

C=CCc1cc(OC)c2c(c1)C(OC(C)=O)CC(c1ccc(OC)c(OC)c1)O2 (configuration not stated)
> 100 µM: [37]
inactive: [1] 47.4 µM | [2] > 100 µM | [3] > 100 µM | [5] > 100 µM | [6] > 100 µM | [8] 46.7 µM | [10] > 100 µM | [11] > 100 µM | [54] > 100 µM | [12] > 100 µM | [13] > 100 µM | [14] > 100 µM | [15] > 100 µM | [16] > 100 µM | [55] > 100 µM | [17] > 100 µM | [18] > 100 µM | [19] 67.3 µM | [20] > 100 µM | [22] > 100 µM | [56] 60.5 µM | [24] > 100 µM | [25] 45.4 µM | [26] > 100 µM | [27] > 100 µM | [28] > 100 µM | [29] > 100 µM | [30] 17.1 µM | [32] > 100 µM | [33] > 100 µM | [34] > 100 µM | [57] > 100 µM | [35] > 100 µM | [36] > 100 µM | [38] > 100 µM | [39] > 100 µM | [40] > 100 µM | [41] > 100 µM | [42] > 100 µM | [43] 23.4 µM | [44] > 100 µM | [46] > 100 µM | [47] > 100 µM | [48] 49.4 µM | [49] > 100 µM | [50] > 100 µM | [51] > 100 µM | [52] 63.1 µM

O=c1c2cc3c(=O)n(CCc4ccccc4CO)c(=O)c3cc2c(=O)n1CCc1ccccc1CO
inactive: [1] > 100 µM | [2] > 100 µM | [3] > 100 µM | [4] > 100 µM | [5] > 100 µM | [6] > 100 µM | [7] > 100 µM | [8] > 100 µM | [9] > 100 µM | [10] > 100 µM | [54] > 100 µM | [12] > 100 µM | [13] > 100 µM | [14] > 100 µM | [16] > 100 µM | [17] > 100 µM | [18] > 100 µM | [19] 46.6 µM | [20] > 100 µM | [23] > 100 µM | [56] > 100 µM | [27] > 100 µM | [28] > 100 µM | [29] > 100 µM | [30] > 100 µM | [31] > 100 µM | [32] > 100 µM | [34] > 100 µM | [57] > 100 µM | [36] > 100 µM | [38] > 100 µM | [39] > 100 µM | [40] > 100 µM | [41] > 100 µM | [42] > 100 µM | [44] > 100 µM | [46] > 100 µM | [47] > 100 µM | [48] > 100 µM | [49] > 100 µM | [50] > 100 µM | [51] > 100 µM | [52] > 100 µM | [53] > 100 µM
> 100 µM: [37]

C=CN1C(=O)OC(c2ccccc2)C1c1ccccc1 (configuration not stated)
inactive: [1] 61.1 µM and > 31.6 µM | [55] > 100 µM | [19] > 100 µM and > 99.3 µM | [20] 40.7 µM and > 31.6 µM | [22] > 100 µM | [23] > 10 µM | [56] 54.7 µM and > 31.6 µM | [31] 49.1 µM and > 78.5 µM | [36] > 31.6 µM and 45.2 µM | [40] 57.4 µM and > 31.6 µM | [49] > 31.6 µM and 40.5 µM

O=C(Nc1ccc(Cl)cc1Cl)/C(Cl)=C1/Sc2ccccc2NC1=O
25.9 µM: [37]
inactive: [1] 30.2 µM | [2] 19.3 µM | [3] 22.2 µM | [4] 50.5 µM | [5] 28.6 µM | [6] 38.6 µM | [7] 66.4 µM | [8] 19.6 µM | [9] 15.2 µM | [10] 35.4 µM | [11] 41.2 µM | [54] 23 µM | [12] 20 µM | [13] 39.3 µM | [15] 26.6 µM | [16] 20.1 µM | [17] 25.6 µM | [18] 30 µM | [20] 33.7 µM | [21] 24 µM | [22] 52.6 µM | [23] 1.32 µM | [56] 32.3 µM | [24] 58.1 µM | [25] 39.7 µM | [26] 29.2 µM | [27] 25.2 µM | [29] 26.7 µM | [30] 18 µM | [31] 40.6 µM | [32] 44.9 µM | [33] 61.9 µM | [34] 18.8 µM | [57] 20.8 µM | [35] 32 µM | [36] 21.9 µM | [38] 22.8 µM | [39] 25.6 µM | [41] 24.7 µM | [42] 37.8 µM | [43] 16.8 µM | [44] 23.6 µM | [45] 45.3 µM | [46] 28.4 µM | [48] 34.5 µM | [49] 29.6 µM | [51] 38 µM | [52] 73.5 µM | [53] 27.9 µM

O=C(O)c1ccc(C(=O)c2ccccc2)c(C(=O)O)c1
> 100 µM: [37]
inactive: [1] > 100 µM | [2] > 100 µM | [4] > 100 µM | [5] > 100 µM | [6] > 100 µM | [7] > 100 µM | [8] > 100 µM | [9] > 100 µM | [11] > 100 µM | [54] > 100 µM | [12] > 100 µM | [13] > 100 µM | [14] > 100 µM | [15] > 100 µM | [58] > 100 µM | [59] > 100 µM | [55] > 100 µM | [17] > 100 µM | [18] > 100 µM | [19] > 100 µM | [20] > 100 µM | [21] > 100 µM | [60] > 100 µM | [61] > 100 µM | [22] > 100 µM | [56] > 100 µM | [24] > 100 µM | [25] > 100 µM | [26] > 100 µM | [27] > 100 µM | [28] > 100 µM | [29] > 100 µM | [30] > 100 µM | [31] > 100 µM | [34] > 100 µM | [57] > 100 µM | [35] > 100 µM | [36] > 100 µM | [62] > 100 µM | [63] > 100 µM | [38] > 100 µM | [64] > 100 µM | [65] > 100 µM | [39] > 100 µM | [41] > 100 µM | [43] > 100 µM | [44] > 100 µM | [45] > 100 µM | [46] > 100 µM | [47] > 100 µM | [48] > 100 µM | [49] > 100 µM | [66] > 100 µM | [50] > 100 µM | [51] > 100 µM | [52] > 100 µM | [67] > 100 µM | [53] > 100 µM
